Data reported in patent publication US4349544A, “Method for increasing the milk let down in mammals” (Ceskoslovenska akademie ved, priority 1976, dated 1982).
“And” between values parts separate entries of the source, which are not always exact repeats. Equal entries are not always repeated.

Experiments:
[1] = tested on: uterine horn; experiment: In situ uterine horn contractions in estrogenized anesthetized female rats; type: in vivo, rat; conditions: for A = amplitude of contractions as a % of maximal contraction induced by a tetanic dose of 10 mcg/kg oxytocin: equipotent i.v. doses (10 mcg/kg dCOMOT, Me-OT; 1 mcg/kg dOT, OT), n=5; for A = amplitude of contractions as a % of maximal contraction induced by a tetanic dose of 10 mcg/kg oxytocin / C = duration of the response: mean, SEM on next line; for D = the presence of tetany in % of the animal group (single maximal contraction lasting more than 10 min.) / B = contraction frequency per 10 min. in % / C = duration of the response: equipotent i.v. doses (10 or 1 mcg/kg); for B = contraction frequency per 10 min. in %: mean ± SEM
Protocol: 250-300 g body wt female rats (n=5 for each substance) were pre-treated for 3 days with 50 mcg di-ethylstilbestrol and 25 mg progesterone injected once daily i.m. in order to fully "estrogenize" the animals and have them all in the same functional state of myometrial reactivity. They were then anesthetized with urethane and prepared for in situ measurements of uterine horn contractions using Grass force-displacement treansducers and polygraph recording.

[2] = sow, as in all other mammals; cited from earlier work
[3] = tested on: uterus of gilts; type: in vivo, gilt; conditions: i.v., OT 1 to 5 IU, dCOMOT 0.2 to 1.0 mg
Protocol: Four gilts were used. The experiments stated about 24 hours after onset of their second or third estrus. Their cycle duration was in the range 19-22 days. They were anesthetized by i.v. administration of about 15 mg/kg Na thionembutal (in 5% (w/v) solution)--additional doses were required during the experiment. The uterus was exposed through a midline abdominal incision. A recording balloon-tipped catheter was inserted into each uterine horn through a small incision about 10 cm from the uterine body (Clay-Adams catheters, PE 90-0.86 mm i.d.×1.27 mm o.d., with a micro-balloon sealed over the tip with a double tie of 0000 silk suture). The recording system was filled with saline and each catheter was affixed to the uterine wall with 000 silk suture to prevent motion of the balloon in the lumen. The catheters exited through the mid-abdominal incision and were connected to P-23AC pressure transducers, thence to 7PL DC preamplifiers. When we were satisfied that the recording system was functioning the abdominal incision was closed about the catheters. […] Unfortunately there was not enough material for a full scale dose-response investigation.

[4] = tested on: healthy lactating sows; experiment: Milk-let-down effect in healthy lactating sows; type: in vivo, sow
Protocol: The milk-let-down effect of 1-desamino-1-monocarba-([…](OMe))-oxytocin (hereinafter noted as dCOMOT) was tested in healthy lactating sows. The milk-let-down effect of 0.6 mg of dCOMOT injected intravenously lasted for from 4 to 9 hours.

[5] = tested on: sows affected with hypogalactia or agalactia; type: in vivo, sow; conditions: for Litter size (Mean ± s.d.) 7 days after treatment / Litter size (Mean ± s.d.) at day of treatment: dCOMOT 0.6 mg i.v. or i.m., oxytocin 30-50 I.U.; for sows failing to eject milk on the day after treatment: day after 1st treatment; for Mean piglet weight per litter at day of treatment / Litter size (Mean ± s.d.) at day of treatment: day of treatment (baseline); for side effects after treatment: in vivo
[6] = tested on: myometrium; conditions: relative to oxytocin; cited from earlier work
[7] = tested on: isolated rat mammary gland; experiment: Biological activity D: isolated rat mammary gland; type: cell-based
From the text: | D = isolated rat mammary gland,

[8] = tested on: in situ rat uterus; experiment: Biological activity B: in situ rat uterus; conditions: in vivo
From the text: | B = in situ rat uterus,

[9] = tested on: antidiuretic in the rat; experiment: Biological activity F: antidiuretic in the rat; conditions: in vivo
From the text: | F = antidiuretic in the rat.

[10] = tested on: lactational activity; experiment: Biological activity E: lactational activity in vivo
From the text: | E = lactational activity in vivo

[11] = tested on: isolated rat uterus; experiment: Biological activity A: isolated rat uterus; type: cell-based
From the text: | A = isolated rat uterus,

[12] = tested on: pregnant cows; experiment: Induction of labor in pregnant Czech red-spotted cows; type: in vivo, cow; conditions: for Duration of Labor: individual animals
Protocol: These experiments were carried out on 13 pregnant `Czech red-spotted` cows ranging from para I to para V. Average pregnancy in this breed is 290 days in duration.
Nine of the animals were 278-290 days after insemination but actual active labor had not yet begun. These animals received no other medication (Table 7).
Four of the animals were estimated to be near to term (cf. Table 4). 48 hours before the actual experiment they received 20 mg dexamethasone i.m. in an attempt to prepare the uterine cervix for active labor. In this group, in addition to close clinical follow-up, measurements were also made of: body temp., hemoglobin (Hb), glucose, total protein, inorganic P, Ca and Mg concentrations in the blood, both in the cow during the experiment and in the calf after birth, all by standard methods.
The standard i.v. (jugular) injection dosage of dCOMOT was 5 mg. In those cases in which labor lasted longer than 6 hours (cf. Results) in second injection was given.
The first group of 9 cows was managed under field conditions--in the barns of local farms. The four animals under more intensive study were kept in stalls set aside in a research building for one week prior to the onset of the experiment and for 3 weeks following delivery for further postnatal observations.

[13] = Partition coefficient between 2-butanol and 0.05% acetic acid; type: physicochemical; conditions: 2-butanol / 0.05% acetic acid
From the text: K = partition coefficient between 2butanol and 0.05% acetic

| Molecule | A = amplitude of contractions as a % of maximal contraction induced by a tetanic dose of 10 mcg/kg oxytocin [1] [%] | D = the presence of tetany in % of the animal group (single maximal contraction lasting more than 10 min.) [1] | B = contraction frequency per 10 min. in % [1] [%] | C = duration of the response [1] [min] | Mean piglet weight per litter 7 days after treatment [5] [kg] | Litter size (Mean ± s.d.) 7 days after treatment [5] | sows failing to eject milk on the day after treatment [5] | Mean piglet weight per litter at day of treatment [5] [kg] | Litter size (Mean ± s.d.) at day of treatment [5] | side effects after treatment [5] | also measured |
| --- | --- | --- | --- | --- | --- | --- | --- | --- | --- | --- | --- |
| CC[C@H](C)[C@@H]1NC(=O)[C@H](Cc2ccc(O)cc2)NC(=O)[C@@H](N)CSSC[C@@H](C(=O)N2CCC[C@H]2C(=O)N[C@@H](CC(C)C)C(=O)NCC(N)=O)NC(=O)[C@H](CC(N)=O)NC(=O)[C@H](CCC(N)=O)NC1=O [oxytocin, reference compound] | 90 | 60% | 43 ± 3.2 | 10.4 | 2.28 ± 0.44 | 9.10 ± 2.10 | Four out of 17 | 1.40 ± 0.22 | 10.00 ± 1.95 | No side effects were observed | biochemical half-life of injected hormone [2]: only a few minutes; contraction rate after injection (baseline 6/10 min) [3]: 8/10; response duration ([3]; anesthetized gilts): approximately 10 min; duration of rapid increase of the intramammary pressure ([4]; 5-10 I.U. intravenous, healthy lactating sows): 5 to 10 min |
| 1-deamino-OT [d OT] | 92 | 60% | 65 ± 6.2 | 46 |  |  |  |  |  |  |  |
| [2-Tyr(OMe)]-OT [Me--OT] | 68 | none | 42 ± 5.4 | 20.6 |  |  |  |  |  |  | contractile activity on the myometrium in comparison with the natural hormone [6]: one tenth; vasoconstrictor activity in the myometrium in comparison with the natural hormone [6]: one hundredth |
| 1-desamino-1-monocarba-(2-Tyr(OMe))-oxytocin [Ic] | 65 | none | 60 ± 5.3 | 185 | 2.64 ± 0.62 | 8.92 ± 1.85 | None | 1.44 ± 0.37 | 10.16 ± 1.65 | No side effects were observed | Biological activities D = isolated rat mammary gland [7]: 67 IU/mg; Biological activities B = in situ rat uterus [8]: 40 IU/mg; Biological activities F = antidiuretic in the rat [9]: 0.9 IU/mg; Biological activities E = lactational activity in vivo [10]: 35 IU/mg; Biological activities A = isolated rat uterus [11]: 10 IU/mg; health of calves ([12]; Group I): All the calves were healthy; Mean duration of labor from the dCOMOT injection ([12]; Group I, 9 non-pretreated cows, mean ± SEM): 14.25 ± 5.1 h; uterine tetany during induced labor ([12]; Group I, non-pretreated cows): no evidence of uterine tetany whatsoever; response following injection ([12]; Group I, non-pretreated cows, all cases): onset of regular uterinne contractions and increased tension in the udder; Duration of Labor ([12]; Group I, non-pretreated cows, dCOMOT i.v.): 26 h and 34 h and 22.5 h and 6 h and 24.5 h and 10 h and 1.5 h and 7 h and 15 h; health of calves ([12]; Group II): all calves were healthy; mean duration of labor ([12]; Group II, 4 dexamethasone pretreated cows): 4.3 ± 2.1 h; Duration of Labor ([12]; Group II, cows pretreated with 20 mg dexamethasone i.m. 48 hours before, listed as dCOMOT): 0.7 h and 8.2 h and 8.8 h and 8.6 h; uterine tetany during induced labor ([12]; Group II, dexamethasone pretreated cows): In no cases was uterine tetany observed; start of active labor after injection ([12]; Group II, dexamethasone pretreated cows, all cases): within minutes; Progeny Serum ([12]; Group II, dexamethasone pretreated cows, individual calves): 7.4; duration of secondary oscillation in intramammary pressure ([4]; 0.6 mg intravenously, healthy lactating sows): at least 4 hours; milk-let-down response after intramuscular injection ([4]; intramuscular injection, compared with i.v.): approximately the same response; piglet weight gain during the observation period versus oxytocin group ([5]; 7 day observation period): gained more weight; K = partition coefficient [13]: 3.15 |
